According to patent US7968585B2, “Inhibitors of 11-beta-hydroxysteroid dehydrogenase 1” (Eli Lilly and Company, priority 2006, dated 2011):

Experiments:
11β-HSD1 = biological target: T1, 11β-HSD1 (Homo sapiens, UniProt P28845); experiment: Human Aortic Smooth Muscle Cell Assay (cortisone to cortisol conversion); type: cell-based; settings: primary human aortic smooth muscle cells (AoSMC), hTNFα induced, cortisol immunoassay
T1 construct: assay medium containing 12 ng/mL hTNFα to induce expression of 11β-HSD1; endogenous in cells; host or cells: primary human aortic smooth muscle cells (AoSMC), induced with hTNFα
Experimental: Human Aortic Smooth Muscle Cell Assay
Primary human aortic smooth muscle cells (AoSMC) are cultured in 5% FBS growth medium to a passage number of 6, then pelleted by centrifugation and resuspended at a density of 9×10^4 cells/mL in 0.5% FBS assay medium containing 12 ng/mL hTNFα to induce expression of 11β-HSD1. Cells are seeded into 96-well tissue culture assay plates at 100 μL/well (9×10^3 cells/well) and incubated for 48 hours at 37° C., 5% CO2. Following induction, cells are incubated for 4 hours at 37° C., 5% CO2 in assay medium containing test compounds then treated with 10 μL/well of 10 μM cortisone solubilized in assay medium, and incubated for 16 hours at 37° C., 5% CO2. Medium from each well is transferred to a plate for subsequent analysis of cortisol using a competitive fluorescence resonance time resolved immunoassay. In solution, an allophycocyanin (APC)-cortisol conjugate and free cortisol analyte compete for binding to a mouse anti-cortisol antibody/Europium (Eu)-anti mouse IgG complex. Higher levels of free cortisol result in diminishing energy transfer from the Europium-IgG to the APC-cortisol complex resulting in less APC fluorescence. Fluorescent intensities for Europium and APC are measured using a LJL Analyst AD. Europium and APC excitation is measured using 360 nm excitation and 615 nm and 650 nm emission filters respectively. Time resolved parameters for Europium were 1000 μs integration time with a 200 μs delay. APC parameters are set at 150 μs integration time with a 50 μs delay. Fluorescent intensities measured for APC are modified by dividing by the Eu fluorescence (APC/Eu). This ratio is then used to determine the unknown cortisol concentration by interpolation using a cortisol standard curve fitted with a 4-parameter logistic equation. These concentrations are then used to determine compound activity by plotting concentration versus % inhibition, fitting with a 4-parameter curve and reporting the IC50.

cortisone conversion = experiment: Acute In Vivo Cortisone Conversion Assay; settings: male C57BL/6 mice, oral dose of 10 mg/kg, cortisone challenge after 16 hours, serum cortisol
Experimental: Acute In Vivo Cortisone Conversion Assay
In general, compounds are dosed orally into mice, the mice are challenged with a subcutaneous injection of cortisone at a set timepoint after compound injection, and the blood of each animal is collected some time later. Separated serum is then isolated and analyzed for levels of cortisone and cortisol by LC-MS/MS, followed by calculation of mean cortisol and percent inhibition of each dosing group. Specifically, male C57BL/6 mice are obtained from Harlan Sprague Dawley at average weight of 25 grams. Exact weights are taken upon arrival and the mice randomized into groups of similar weights. Compounds are prepared in 1% w-w HEC, 0.25% w-w polysorbate 80, 0.05% w-w Dow Corning antifoam #1510-US at various doses based on assumed average weight of 25 grams. Compounds are dosed orally, 200 μl per animal, followed by a subcutaneous dose, 200 μl per animal, of 30 mg/kg cortisone at 1 to 24 hours post compound dose. At 10 minutes post cortisone challenge, each animal is euthanized for 1 minute in a CO2 chamber, followed by blood collection via cardiac puncture into serum separator tubes. Once fully clotted, tubes are spun at 2500×g, 4° C. for 15 minutes, the serum transferred to wells of 96-well plates (Corning Inc, Costar #4410, cluster tubes, 1.2 ml, polypropylene), and the plates are frozen at −20° C. until analysis by LC-MS/MS. […]

[1] = biological target: recombinant human 11β-HSD type 1 enzyme (Homo sapiens, UniProt P28845); experiment: 11β-HSD Type 1 Enzyme Assay (NADPH fluorescence); type: biochemical; settings: three hour incubation, read-out: Human 11-βHSD1 IC50
Experimental: 11β-HSD Type 1 Enzyme Assay
Human 11β-HSD type 1 activity is measured by assaying NADPH production by fluorescence assay. Solid compounds are dissolved in DMSO to a concentration of 10 mM. Twenty microliters of each are then transferred to a column of a 96-well polypropylene Nunc plate where they are further diluted 50-fold followed by subsequent two-fold titration, ten times across the plate with additional DMSO using a Tecan Genesis 200 automated system. Plates are then transferred to a Tecan Freedom 200 system with an attached Tecan Temo 96-well head and an Ultra 384 plate reader. Reagents are supplied in 96-well polypropylene Nunc plates and are dispensed individually into black 96-well Molecular Devices High Efficiency assay plates (40 μL/well capacity) in the following fashion: 9 μL/well of substrate (2.22 mM NADP, 55.5 μM Cortisol, 10 mM Tris, 0.25% Prionex, 0.1% Triton X100), 3 μL/well of water to compound wells or 3 μL to control and standard wells, 6 μL/well recombinant human 11β-HSD type 1 enzyme, 2 μL/well of compound dilutions. […] Plates are then shaken once more for 15 seconds then placed into an Ultra 384 microplate reader (355EX/460EM) for detection of NADPH fluorescence.

T1 sequence (P28845 whole entry): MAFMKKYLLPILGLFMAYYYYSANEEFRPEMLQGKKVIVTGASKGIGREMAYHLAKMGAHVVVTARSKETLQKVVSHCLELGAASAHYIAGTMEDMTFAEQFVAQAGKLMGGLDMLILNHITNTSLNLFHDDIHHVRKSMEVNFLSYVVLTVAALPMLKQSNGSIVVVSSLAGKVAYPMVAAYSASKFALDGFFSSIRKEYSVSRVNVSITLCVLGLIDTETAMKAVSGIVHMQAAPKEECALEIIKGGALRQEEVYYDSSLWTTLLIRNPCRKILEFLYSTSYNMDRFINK
Chain of recombinant human 11β-HSD type 1 enzyme (P28845 whole entry): as above

Row | IC50 (11β-HSD1) [nM] | IC50 [1] [nM] | SMILES | % Inhibition after 16 hours (dose of 10 (mg/kg)) (cortisone conversion) [%]
1 | 47 | – | O=C(c1ccc(-c2cc(Cl)c(CN3CCC4(CCCCC4)C3=O)c(Cl)c2)cc1)N1CCC(C(F)(F)F)CC1 [Example 5, 2-[3,5-Dichloro-4′-(4-trifluoromethyl-piperidine-1-carbonyl)-biphenyl-4-ylmethyl]-2-aza-spiro[4.5]decan-1-one] | 69.3
2 | 20.5 | 888 | O=C(c1ccc(-c2cc(Cl)c(CN3CCC4(CCCCC4)C3=O)c(Cl)c2)cc1)N1CCN(CCF)CC1 [Example 6, 2-{3,5-Dichloro-4′-[4-(2-fluoro-ethyl)-piperazine-1-carbonyl]-biphenyl-4-ylmethyl}-2-aza-spiro[4.5]decan-1-one] | 41.2
3 | 21.5 | 552 | O=C1N(Cc2c(Cl)cc(-c3ccc(F)cc3)cc2Cl)CCC12CCc1n[nH]cc1C2 (stereo not shown) [Example 14] | –
